Experimental findings from ChEMBL document CHEMBL1201862, “PubChem BioAssay data set” (2004) are described below.

Test systems include A498; A549; ACHN; CAKI-1; EKVX; HCC 2998; HCT-116; HL-60; IGROV-1; MOLT-4; Malme-3M; NCI-H23; NCI-H460; OVCAR-5; PC-3; SF-539; T47D; UACC-257; UACC-62; NCI/ADR-RES.
Common to all, as to assay: DTP human tumour cell line panel, 48 h

Values joined by “and” are separate entries in the source; they are usually repeats but may differ in a detail not shown here. Identical values can stand only once.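 Following 48 hours of exposure in 96-well plates, responses at five concentrations were used to interpolate endpoints linearly. The concentration for 50% growth inhibition is given as GI50.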 Active and inactive are the calls of the source. No stated cut-off is given here; in the data, active = GI50 up to about 1.1 µM and inactive = higher.

Consider `C=C(CO)[C@H]1Oc2ccc(C(C)=O)cc2[C@@H]1O`, for which the GI50 in the test on A498, with A549, with ACHN, in the test on CAKI-1, in the test on EKVX and in the test on HCC 2998 was > 100 µM (inactive) each time. The GI50 – broadly, the concentration at which growth is held to half of that of the control – is > 100 µM (inactive) with HCT-116; > 100 µM (inactive) in the test on HL-60; > 100 µM (inactive) in the test with IGROV-1; > 100 µM (inactive) in the test on MOLT-4; 53.3 µM (inactive) in the test with Malme-3M; > 100 µM (inactive) in the test on NCI-H23. The GI50 in the test on NCI-H460, in the test on OVCAR-5, in the test with PC-3, in the test on SF-539, in the test with T47D and in the test with UACC-257 was > 100 µM (inactive) in each case. In addition, the GI50 in the test with UACC-62 is > 100 µM (inactive).

Take `C=C1C(=O)O[C@H]2C1C[C@@H](OC(C)=O)/C(C)=C/CC[C@@]1(C)O[C@H]21` (some centres not stated): the GI50 with A549 is 49.7 µM (inactive); in the test with ACHN, 4.33 µM (inactive); in the test on CAKI-1 it was 9.18 µM (inactive); with EKVX, 17.2 µM (inactive); with HCC 2998 it was 13 µM (inactive); in the test on HCT-116 it was 8.75 µM (inactive). Further, the GI50 in the test with IGROV-1 was 7.67 µM (inactive); in the test on MOLT-4, 2 µM (inactive); in the test with Malme-3M, 4.36 µM (inactive); with NCI-H23, 15.1 µM (inactive); in the test on NCI-H460, 33.3 µM (inactive); with NCI/ADR-RES it was 11 µM (inactive). Moreover, the GI50 is 17.6 µM (inactive) in the test with OVCAR-5; 15.3 µM (inactive) in the test on PC-3; 7.1 µM (inactive) in the test on T47D; 1.34 µM (inactive) in the test with UACC-257; 3.05 µM (inactive) with UACC-62.

As to `C(=N\C12CC3CC(CC(C3)C1)C2)/C1CCCCC1`, the GI50 with A498, in the test with A549, in the test on ACHN, in the test on CAKI-1, in the test on EKVX and in the test with HCC 2998 was > 100 µM (inactive) throughout. Besides, the GI50 in the test with HCT-116, with HL-60, in the test on IGROV-1, in the test with MOLT-4, in the test with Malme-3M and in the test with NCI-H23 was > 100 µM (inactive) in each case. Further, the GI50 in the test on NCI-H460, in the test on NCI/ADR-RES, in the test with OVCAR-5, with PC-3, with SF-539 and in the test with UACC-257 was > 100 µM (inactive) in each case. Moreover, the GI50 in the test with UACC-62 was > 100 µM (inactive).

For the compound `C=CCOC(=O)C[C@H](NC(=O)[C@H](Cc1ccc(O)cc1)NCC(F)(F)F)C(=O)OCC=C`, the GI50 was > 100 µM (inactive) in the test with A549; > 100 µM (inactive) with ACHN; > 100 µM (inactive) in the test on CAKI-1; 25.5 µM (inactive) in the test on EKVX; 83.4 µM (inactive) in the test with HCC 2998; > 100 µM (inactive) with HCT-116. In addition, the GI50 with IGROV-1 was > 100 µM (inactive); in the test with MOLT-4, 25.1 µM (inactive); in the test with Malme-3M, 22.6 µM (inactive); in the test on NCI-H23, 37.5 µM (inactive); in the test with NCI-H460 it was 59.6 µM (inactive); with NCI/ADR-RES, > 100 µM (inactive). Moreover, the GI50 is > 100 µM (inactive) in the test on OVCAR-5; 77.8 µM (inactive) in the test with PC-3; 57.8 µM (inactive) with SF-539; 23.6 µM (inactive) in the test with T47D; 20.8 µM (inactive) in the test on UACC-257; 40.7 µM (inactive) in the test with UACC-62.

As to `O=C1/C(=C/c2cccc([N+](=O)[O-])c2)Sc2scc(-c3ccc([N+](=O)[O-])cc3)[n+]21`, the GI50 with A549 was 29.6 µM (inactive); in the test on ACHN, 19.8 µM (inactive); in the test on CAKI-1, 20.6 µM (inactive); with EKVX, 18.4 µM (inactive); with HCC 2998, 16.4 µM (inactive); in the test with HCT-116, 16 µM (inactive). Moreover, the GI50 with IGROV-1 is 18.6 µM (inactive); in the test with MOLT-4 it was 21.1 µM (inactive); in the test on NCI-H23, 15.2 µM (inactive); with NCI-H460 it was 11.4 µM (inactive); in the test with NCI/ADR-RES, 19 µM (inactive); with OVCAR-5, 24.5 µM (inactive). Moreover, the GI50 with PC-3 was 30.7 µM (inactive); with SF-539 it was 23.8 µM (inactive); in the test on T47D it was 44.9 µM (inactive); in the test with UACC-257, 21.8 µM (inactive); in the test on UACC-62, 18.7 µM (inactive).

With `CCCCC(=O)OCC(=O)[C@]1(O)Cc2c(O)c3c(c(O)c2[C@@H](OC2CC(NC(=O)C(F)(F)F)C(O)C(C)O2)C1)C(=O)c1c(OC)cccc1C3=O` (some centres not stated), the GI50 with A498 was 0.247 µM (active); with A549, 0.194 µM (active); with ACHN, 0.406 µM (active); in the test on CAKI-1 it was 0.203 µM (active); in the test with EKVX, 2.43 µM (inactive); in the test with HCC 2998, 1.3 µM (inactive). Besides, the GI50 was 0.294 µM (active) in the test with HCT-116; 0.126 µM (active) with HL-60; 0.794 µM (active) in the test on IGROV-1; 0.0228 µM (active) in the test with MOLT-4; 0.711 µM (active) with Malme-3M; 0.351 µM (active) with NCI-H23. The 50% growth inhibitory concentration (GI50) was 0.0214 µM (active) with NCI-H460; 1.52 µM (inactive) in the test on OVCAR-5; 1.14 µM (inactive) in the test on PC-3; 0.387 µM (active) with SF-539; 0.54 µM (active) in the test with T47D; 1.3 µM (inactive) with UACC-257. The GI50 in the test with UACC-62 was 0.184 µM (active).

For the compound `CC(=O)OC1CC[C@@]2(C)C(C1)CC(OC(C)=O)[C@@H]1C2CC(OC(C)=O)[C@]2(C)C(C(C)CC=C(c3ccc(Cl)cc3)c3ccc(Cl)cc3)CCC12` (some centres not stated), the GI50 is 64 µM (inactive) with A549; 23.3 µM (inactive) in the test on ACHN; 97.1 µM (inactive) in the test with EKVX; 94 µM (inactive) with HCC 2998; 19.6 µM (inactive) with HCT-116; 4.7 µM (inactive) in the test with HL-60. The GI50 in the test on IGROV-1 is > 100 µM (inactive); with MOLT-4 it was 20 µM (inactive); in the test on NCI-H460, 26.3 µM (inactive); with NCI/ADR-RES, > 100 µM (inactive); with OVCAR-5, 36.8 µM (inactive); with PC-3, 23.6 µM (inactive). In addition, the GI50 in the test with SF-539 is 67.3 µM (inactive); with T47D, 32.1 µM (inactive); in the test with UACC-257, 38.6 µM (inactive).

On to `COc1cccc2c1C(=O)c1c(O)c3c(c(O)c1C2=O)C[C@@](O)(C(=O)CO)C[C@@H]3OC1CC(N)C(O)C(C)O1` (some centres not stated), for which the 50% growth inhibitory concentration (GI50) in the test with A549 is 74.1 nM (active) and 80.2 nM (active); with ACHN, 0.255 µM (active); with CAKI-1 it was 269 nM (active) and 176 nM (active); with EKVX, 547 nM (active) and 301 nM (active); with HCC 2998 it was 314 nM (active) and 191 nM (active); with HCT-116, 66.5 nM (active) and 72.6 nM (active). Besides, the GI50 in the test on HL-60 is 60.5 nM (active) and 57 nM (active); in the test with MOLT-4, 16.9 nM (active) and 10 nM (active); in the test on NCI-H23 it was 76.4 nM (active) and 105 nM (active); in the test with OVCAR-5, 658 nM (active) and 733 nM (active); in the test with PC-3, 237 nM (active) and 255 nM (active); in the test on T47D, 94.2 nM (active) and 94 nM (active). The GI50 in the test with UACC-257 was 215 nM (active) and 337 nM (active).
